Where two headings read alike, the source gives them in different places.
Experiments:
[1] = tested on: Mouse lung cancer (3LL); assay: Cytotoxicity in vitro, SRB and MTT methods, 72 h; format: cell-based; details: 3LL cells, read-out: Anti-cancer Activity IC50 In vitro, 3LL
Procedure: (§1) Some of the above compounds are tested in vitro and in vivo for their antitumor activities. Among these tests, the cytotoxicity is tested in vitro using SRB and MTT methods for 72 h.

[2] = tested on: Human ovarian cancer (A2780); assay: Cytotoxicity in vitro, SRB and MTT methods, 72 h; format: cell-based; details: A2780 cells, read-out: Anti-cancer Activity IC50 In vitro, A2780
Procedure: as §1

[3] = tested on: Human colon cancer HT-29; assay: Cytotoxicity in vitro, SRB and MTT methods, 72 h; format: cell-based; details: HT-29 cells, read-out: Anti-cancer Activity IC50 In vitro, HT-29
Procedure: as §1

[4] = tested on: Human poorly differentiated gastric adenocarcinoma (BGC-823); assay: Cytotoxicity in vitro, SRB and MTT methods, 72 h; format: cell-based; details: BGC-823 cells, read-out: Anti-cancer Activity IC50 In vitro, BGC-823
Procedure: as §1

[5] = tested on: mouse S180 sarcoma; assay: Growth inhibition effect on mouse S180 sarcoma; format: in vivo; details: mouse S180, 50 mg/kg ip; for Rate of inhibition: N = 7; for Body Weight without Tumor / Ending Body Weight / Tumor Weight / Starting Body Weight: N = 7, X ± SD; for Starting Body Weight: baseline
[6] = tested on: transplanted tumor of human colon cancer HT-99; assay: Efficacy on transplanted tumor of human colon cancer HT-99 on nude mice; format: in vivo; details: compounds 60 mg/kg ip d0,1, GCT 20, ADR 4 mg/kg ip, combinations GCT or CPT-11 20 / ADR 4 ip + compound 25 mg/kg iv; for RTV (relative tumor volume) X ± SD / T/C: 17th day; for TV dn: dn = 17th day after administration

Compound | IC50 ([1]; Mus musculus, 3LL) | IC50 ([2]; Homo sapiens, A2780, 72 h) | IC50 ([3]; Homo sapiens, HT-29, 72 h) | IC50 ([4]; Homo sapiens, BGC-823, 72 h) | further results
NC(=O)c1nnc(CC2CCOC2)c2cc(-c3ccc(F)cc3)sc12 (stereo not drawn) [XXIII, 2-(4-fluorophenyl)-4-(3-tetrahydrofuranmethyl)-thieno[2,3-d]pyridazinyl-7-formamide] | > 100 µM | > 100 µM | 5.57 µM | > 100 µM | 
CNC(=O)c1nnc(CC2CCSC2)c2cc(-c3ccc(Cl)cc3)sc12 (stereo not drawn) [XXXIV, 2-(4-chlorophenyl)-4-(3-tetrahydrothiophenemethyl)-thieno[2,3-d]pyridazinyl-7-N-methyl formamide] | 50.6 µM | > 100 µM | > 100 µM | 74.5 µM | 
CNC(=O)c1nnc(Cc2ccoc2)c2cc(-c3ccc(Cl)cc3)sc12 [XXXXXXIX, 2-(4-chlorophenyl)-4-(3-furanmethyl)-thieno[2,3-d]pyridazinyl-7-N-methyl formamide] | 3.31 µM | 7.11 µM | 9.48 µM | 17 µM | 
NC(=O)c1nnc(CC2CCNC2)c2cc(-c3ccc(F)cc3)sc12 (stereo not drawn) [Compound XX, 2-(4-fluorophenyl)-4-(3-pyrrolidinemethyl)-thieno[2,3-d]pyridazinyl-7-formamide] |  |  |  |  | Rate of inhibition [5]: 37.23%; Body Weight without Tumor [5]: 19.33 ± 1.60 g; Ending Body Weight [5]: 21.19 ± 1.40 g; Tumor Weight [5]: 1.86 ± 0.26 g; Starting Body Weight [5]: 19.50 ± 0.89 g
COc1cccc2c1C(=O)c1c(O)c3c(c(O)c1C2=O)C[C@@](O)(C(=O)CO)C[C@@H]3O[C@H]1C[C@H](N)[C@H](O)[C@H](C)O1 [ADR, Adriamycin] |  |  |  |  | RTV (relative tumor volume) X ± SD [6]: 4.38 ± 1.38; T/C [6]: 64%; TV dn [6]: 667 ± 67 mm^3
NC(=O)c1nnc(Cc2ccoc2)c2cc(-c3ccc(F)cc3)sc12 [XXXXXVIII, 2-(4-fluorophenyl)-4-(3-furanmethyl)-thieno[2,3-d]pyridazinyl-7-formamide] | 21.4 µM | 13.9 µM | 21.8 µM | 16.4 µM | 
NC(=O)c1nnc(CC2CCNCC2)c2cc(-c3ccc(Cl)cc3)sc12 [XI, 2-(4-chlorophenyl)-4-(4-piperidinemethyl)-thieno[2,3-d]pyridazinyl-7-formamide] | 8.43 µM | 11.8 µM | 10.7 µM | 9.24 µM | 
NC(=O)c1nnc(CC2CCCNC2)c2cc(-c3ccc(Cl)cc3)sc12 (stereo not drawn) [XIII, 2-(4-chlorophenyl)-4-(R-3-piperidinemethyl)-thieno[2,3-d]pyridazinyl-7-formamide] |  |  |  | 2.62 µM | IC50 [1]: 1.24 µM; IC50 [2]: 1.18 µM; IC50 [3]: 0.73 µM
CN(C)C(=O)c1nnc(CC2CCCNC2)c2cc(-c3ccc(Cl)cc3)sc12 (stereo not drawn) [XV, 2-(4-chlorophenyl)-4-(3-piperidinemethyl)-thieno[2,3-d]pyridazinyl-7-N,N-dimethyl formamide] |  |  |  | 2.25 µM | 
NC(=O)c1nnc(CC2CCSC2)c2cc(-c3ccc(F)cc3)sc12 (stereo not drawn) [XXVI, 2-(4-fluorophenyl)-4-(3-tetrahydrothiophenemethyl)-thieno[2,3-d]pyridazinyl-7-formamide] | > 100 µM | > 100 µM | > 100 µM | 24.6 µM | 
Nc1ccn([C@@H]2O[C@H](CO)[C@@H](O)C2(F)F)c(=O)n1 [GCT, Gemcitabine] |  |  |  |  | RTV (relative tumor volume) X ± SD [6]: 1.64 ± 0.44; T/C [6]: 37%; TV dn [6]: 463 ± 74 mm^3
NC(=O)c1nnc(Cc2cccnc2)c2cc(-c3ccc(F)cc3)sc12 [XXXVIII, 2-(4-fluorophenyl)-4-(3-pyridinemethyl)-thieno[2,3-d]pyridazinyl-7-formamide] | 3.13 µM | 3.13 µM | 1.33 µM | 8.17 µM | 
NC(=O)c1nnc(CC2CCOC2)c2cc(-c3ccc(Cl)cc3)sc12 (stereo not drawn) [XXIV, 2-(4-chlorophenyl)-4-(3-tetrahydrofuranmethyl)-thieno[2,3-d]pyridazinyl-7-formamide] |  |  |  |  | Rate of inhibition [5]: 45.45%; Body Weight without Tumor [5]: 21.56 ± 1.48 g; Ending Body Weight [5]: 23.18 ± 1.66 g; Tumor Weight [5]: 1.62 ± 0.26 g; Starting Body Weight [5]: 19.39 ± 0.60 g
CNC(=O)c1nnc(CC2CCCNC2)c2cc(-c3ccc(Cl)cc3)sc12 (stereo not drawn) [XIV, 2-(4-chlorophenyl)-4-(3-piperidinemethyl)-thieno[2,3-d]pyridazinyl-7-N-methyl formamide] | 8.59 µM | 6.01 µM | 16.8 µM | 30.5 µM | 
NC(=O)c1nnc(CC2CCNC2)c2cc(-c3ccc(Cl)cc3)sc12 (stereo not drawn) [XXI, 2-(4-chlorophenyl)-4-(3-pyrrolidinemethyl)-thieno[2,3-d]pyridazinyl-7-formamide] |  |  | 8.68 µM |  | 
CN(C)C(=O)c1nnc(Cc2ccoc2)c2cc(-c3ccc(Cl)cc3)sc12 [XXXXXXX, 2-(4-chlorophenyl)-4-(3-furanmethyl)-thieno[2,3-d]pyridazinyl-7-N,N-dimethyl formamide] | > 100 µM | > 100 µM | > 100 µM | 5.45 µM | 
2-(4-bromophenyl)-4-(3-α-thiopyranmethyl)-thieno[2,3-d]pyridazinyl-7-formamide [XXXXVI] |  |  |  |  | IC50 [1]: > 100 µM; IC50 [2]: 30.3 µM; IC50 [3]: > 100 µM; IC50 [4]: 11.1 µM
NC(=O)c1nnc(CC2CCCNC2)c2cc(-c3ccc(F)cc3)sc12 (stereo not drawn) [Compound I, 2-(4-fluorophenyl)-4-(3-piperidinemethyl)-thieno[2,3-d]pyridazinyl-7-formamide] | 1.4 µM | 6.4 µM | 4.22 µM | 3.35 µM | 
